The values that follow come from patent US7776826B2, “Method for fostering bone formation and preservation” (Unigene Laboratories, Inc., priority 2004, dated 2010).

Holding throughout (format): in vivo, rat
Experiment [1] concerns Male Sprague-Dawley rats. As to the kind of experiment: Serum osteocalcin concentration at day 21, Groups K-R. From the text:
FIG. 12 provides a measurement of the serum osteocalcin concentration (in ng/ml) in the blood of the rats in Groups K-R when the rats were sacrificed 21 days after commencement of treatment. The meaning of the abbreviated terms is the same as in FIGS. 10 and 11. […] [*=p value<0.05, while **=p value<0.01];
FIG. 12 is a bar graph which sets forth the osteocalcin levels determined, at the time of sacrifice, in the blood serum of the rats which were the subject of the analyses illustrated in FIGS. 10 and 11. As indicated above, it is well known that osteocalcin is a biochemical marker indicative of new bone growth.
The table additionally includes the standard deviations for the values obtained for each analysis, which standard deviations are also included in FIG. 12.

Experiment [2] has as its system Male Sprague-Dawley rats. Description: MicroCT analysis of femoral shafts, Groups K-R. The following applies: left femoral shaft with bmx, agent for 21 days. The source says:
FIG. 13(a-b) illustrate the results of Micro Computerized Tomography (MicroCT) analysis of the left (ablated) and right (non-ablated) femoral shafts of the rats of Groups K-R. The abbreviations are the same as those used in FIGS. 10-12;
FIG. 13 (a-b) provides a comparison between Micro Computerized Tomography (MicroCT) analyses of bone samples taken from the left femoral shaft (FIG. 13a) and the right femoral shaft (FIG. 13b) of rats treated in the manner indicated in FIGS. 10-12. As in the other cases discussed above, the most significant amount of new bone growth is found in the shaft of the left femur, since this shaft was subjected to the bmx treatment. […] In contrast, the right femoral shaft sections show very little or no increase in bone growth at all.

The test system of experiment [3] is Male Sprague-Dawley rats. Description: PIXIMUS (DEXA) analysis of femur distal marrow cavity BMD after left femur bone marrow ablation (bmx), Groups A-J. The source says:
FIG. 1 is a graphical representation of the results of a PIXIMUS analysis of the femur distal marrow cavity bone mineral density (“BMD”) of groups of laboratory rats which were sacrificed at one-week intervals during a three-week test regimen. The PIXIMUS analyzer is available from Lunar Corp., Palo Alto, Calif. and provides Dual Energy X-Ray Absorptiometry (“DEXA”) data for small animals such as mice and rats. Male Sprague-Dawley rats (5 animals per group) aged 9 weeks were sacrificed and tested at time 0 and after 1, 2 and 3 weeks. The various groups were subjected to the following treatment modalities: Group A—left femur control; Group B—left femur sham; Group C—mechanical bone marrow ablation (bmx) to alter the contents of the bone marrow cavity of the left femur; Group D—mechanical bone marrow ablation treatment (bmx) of the left femur, coupled with the administration of an amidated parathyroid hormone truncate (PTH[1-34]-NH2) during days 1-21; and Group E—a right (non-bmx) femur BMD measurement of rats treated during days 1-21 with an amidated parathyroid hormone truncate (PTH[1-34]-NH2) wherein the rat's left femur had undergone a bone ablation (bmx) treatment;
FIG. 2 is a graphical representation of the results of a PIXIMUS analysis of the femur distal marrow cavity BMD of a second set of groups of male Sprague-Dawley rats (5 animals per group) aged 9 weeks which were sacrificed and tested at time 0 and after 1, 2 and 3 weeks. The various groups were subjected to the following treatment modalities: Group F—left femur control; Group G—left femur sham; Group H—mechanical bone marrow ablation (bmx) to alter the contents of the bone marrow cavity of the left femur; Group I—mechanical bone marrow ablation (bmx) of the left femur, coupled with administration of an amidated parathyroid hormone truncate (PTH[1-34]-NH2) during days 1-7, followed by the administration of a salmon calcitonin (sCT) antiresorptive agent during days 7-21; and Group J—a right femur BMD measurement of rats treated with an amidated parathyroid hormone truncate (PTH[1-34]-NH2) wherein the rat's left femur had undergone a bone marrow ablation (bmx) treatment;
Absent the bone anabolic agent, the initial burst of bone formation is quickly followed by the resorption of newly formed bone by osteoclasts (see, e.g., the Group C curve in FIG. 1). […] Table 1 (below) sets forth the values upon which the curves obtained with Groups A-E in FIG. 1 are based. As no readings were taken for the Control (Group A) and Sham (Group B) groups at Week 1 and Week 2, these values were estimated for purposes of preparing the curves for these two Groups. Table 1, moreover, provides the standard deviations for the values obtained in each Group, which standard deviations are also indicated in FIG. 1.
As indicated herein the bmx treatment was always administered to the rats' left femur and never to the right femur. The non-ablated contralateral femur was analyzed, however, throughout the testing protocols described herein as a control used for detecting the systemic effect of the bone anabolic agent. That is, the results achieved with the contralateral (right) femur permit one to exclude the effect attributable to the bmx treatment. Moreover, analysis of the rats' right femur control also enabled the inventors to determine whether the bmx treatment of the left femur had any effect on other skeletal sites located within the body of the rat.
FIG. 2 is provided to illustrate, inter alia, the further beneficial effect achieved due to the overlapping (i.e., with PTH administration) or subsequent administration of the antiresorptive agent salmon calcitonin (sCT). First, a comparison of the curves obtained with Group H (bmx alone) and Group J (PTH+sCT with no bmx) to that obtained with Group I (bmx PTH+sCT) provide still further evidence of the synergistic effect attributable to the use of the method of the invention. […]

The test system of experiment [4] is Male Sprague-Dawley rats. As to the kind of experiment: Von Kossa stained sections of left femurs subjected to bmx. The conditions noted are these: left femur with bmx, PTH daily for 21 days. The source says:
FIG. 8 illustrates sections (at 4× magnification) of undecalcified left femurs, subjected to bone marrow ablation (bmx), wherein the bone sections were stained with Von Kossa stain;
FIG. 8 provides views of stained and […] bone sections of the left femur of representative rats subjected to the following treatment modalities: Control day 0; Control day 21; Sham day 21; bmx day 0; bmx+PBS daily for 7 days; bmx+PBS daily for 14 days; bmx+PBS daily for 21 days; bmx+ parathyroid hormone (PTH[1-34]NH2) daily for 7 days; bmx+PTH daily for 14 days, and bmx+PTH daily for 21 days. […] These views provide substantial additional evidence of the efficacy of the method of the present invention.

Take PTH[1-34]-NH2: the “osteocalcin level, in words” value in the experiment with Male Sprague-Dawley rats [1] (bmx + agent daily for 21 days) is on record as “highest osteocalcin level”. Further, in the experiment on Male Sprague-Dawley rats [1] (bmx rats, day 21, agent daily for 21 days, Groups K-R), the Osteocalcin mean stood at 141.5 ng/mL. The “new bone growth in MicroCT, in words” value with Male Sprague-Dawley rats [2] was “significant degree of improvement”. For the same substance, the “bone formation / resorption by DEXA BMD curves, in words” value in the experiment on Male Sprague-Dawley rats [3] (left femur with bmx) is “unexpected increase in degree, speed and longevity of bone formation”. In addition, the “BMD (DEXA)” value with Male Sprague-Dawley rats [3] (left femur with bmx, Week 0) is 0.096 ± .007 gm/cm^2; in the experiment on Male Sprague-Dawley rats [3] (left femur with bmx, Week 1), 0.166 ± .004 gm/cm^2; in the experiment on Male Sprague-Dawley rats [3] (left femur with bmx, Week 2), 0.200 ± .030 gm/cm^2; in the experiment with Male Sprague-Dawley rats [3] (left femur with bmx, Week 3) it was 0.190 ± .008 gm/cm^2; in the experiment on Male Sprague-Dawley rats [3] (right (non-bmx) femur, Week 0) it was 0.097 ± .008 gm/cm^2; in the experiment on Male Sprague-Dawley rats [3] (right (non-bmx) femur, Week 1), 0.124 ± .007 gm/cm^2. The “BMD (DEXA)” value is listed as 0.141 ± .007 gm/cm^2 in the experiment with Male Sprague-Dawley rats [3] (right (non-bmx) femur, Week 2) and 0.154 ± .007 gm/cm^2 in the experiment on Male Sprague-Dawley rats [3] (right (non-bmx) femur, Week 3). In the experiment with Male Sprague-Dawley rats [4], the “bone growth within marrow cavity on stained sections, in words” value is on record as “greatest such increase”.
On to “salmon calcitonin [CT, reference compound]”, for which the “bone formation / resorption by DEXA BMD curves, in words” value in the experiment with Male Sprague-Dawley rats [3] (left femur with bmx) is reported as “significantly diminishes the proportion of the newly formed bone which is resorbed”.
